Data from ChEMBL document CHEMBL4321813, “Discovery of GSK3527497: A Candidate for the Inhibition of Transient Receptor Potential Vanilloid-4 (TRPV4)” (J Med Chem, 2019).
≈ marks a conversion by molar mass, not a printed value.

Experiments:
[1] = biological target: T1, Transient receptor potential cation channel subfamily V member 4 (Homo sapiens, UniProt Q9HBA0); experiment: Antagonist activity at BacMam virus expressing human TRPV4 transduced in BHK/AC9 or HEK MSR2 cells assessed as inhibition of GSK634775-induced Ca2+ flux preincubated for 10 mins followed by agonist addition by Fluo-4 AM dye based FLIPR assay; type: cell-based
[2] = Oral bioavailability in Sprague-Dawley rat at 1 to 2 mg/kg by HPLC-MS/MS analysis; type: ADME, organism-based; settings: in vivo
[3] = Protein binding in rat plasma assessed as unbound fraction; type: ADME, cell-free
[4] = Lipophilicity, log D of the compound at pH 7.4 by chromatographic method; type: physicochemical; settings: buffer
[5] = Solubility of the compound in FaSSIF measured after 4 hrs; type: physicochemical
[6] = Unbound volume of distribution at steady state in Sprague-Dawley rat at 1 mg/kg, iv administered as 30 mins infusion or 1 to 2 mg/kg, po by HPLC-MS/MS analysis; type: ADME, organism-based; settings: in vivo, 0.5 h
[7] = Unbound clearance in Sprague-Dawley rat at 1 mg/kg, iv administered as 30 mins infusion by HPLC-MS/MS analysis; type: ADME, organism-based; settings: in vivo, 0.5 h
[8] = Clearance in Sprague-Dawley rat at 1 mg/kg, iv administered as 30 mins infusion by HPLC-MS/MS analysis; type: ADME, organism-based; settings: in vivo
[9] = MRT in Sprague-Dawley rat at 1 mg/kg, iv administered as 30 mins infusion by HPLC-MS/MS analysis; type: ADME, organism-based; settings: in vivo
[10] = Volume of distribution at steady state in Sprague-Dawley rat at 1 mg/kg, iv administered as 30 mins infusion or 1 to 2 mg/kg, po by HPLC-MS/MS analysis; type: ADME, organism-based; settings: in vivo, read-out: Vdss
[11] = Ratio of unbound clearance in Sprague-Dawley rat at 1 mg/kg, iv administered as 30 mins infusion to unbound clearance in dog; type: ADME, organism-based; settings: in vivo, 0.5 h
[12] = Unbound AUC in human; type: ADME
[13] = Ratio of Cmax to Cmin in human; type: ADME
[14] = Drug metabolism in rat hepatocytes assessed as rearomatization/conjugation by measuring metabolite formation by LC-MS/MS analysis; type: ADME, cell-based, Hepatocyte
Rattus norvegicus = experiment: Ratio of dose normalized AUC in Sprague-Dawley rat at 100 mg/kg, po using amorphous spray dried dispersion sample to dose normalized AUC in Sprague-Dawley rat at 100 mg/kg, po using crystalline solid form of sample; type: ADME, organism-based; settings: in vivo
[15] = Dose normalized AUC in Sprague-Dawley rat at 100 mg/kg, po using amorphous spray dried dispersion sample by HPLC-MS/MS analysis; type: ADME, organism-based; settings: in vivo
[16] = Dose normalized AUC in Sprague-Dawley rat at 1 mg/kg, po by HPLC-MS/MS analysis; type: ADME, organism-based; settings: in vivo
[17] = Oral bioavailability in Sprague-Dawley rat at 100 mg/kg using crystalline solid form of sample by HPLC-MS/MS analysis; type: ADME, organism-based; settings: in vivo
[18] = Oral bioavailability in Sprague-Dawley rat at 100 mg/kg using amorphous spray dried dispersion sample by HPLC-MS/MS analysis; type: ADME, organism-based; settings: in vivo
[19] = Drug metabolism in rat hepatocytes assessed as oxidation of arene oxide metabolite by measuring 2-[(3R,4S)-4-(4-cyano-3-fluoro-phenoxy)-3-hydroxy-3-(hydroxymethyl)pyrrolidin-1-yl]sulfonyl-3,4-dihydroxy-5-(trifluoromethyl)benzonitrile formation by LC-MS/MS analysis; type: ADME, cell-based, Hepatocyte
[20] = Dose normalized AUC in Sprague-Dawley rat at 100 mg/kg, po using crystalline solid form of sample by HPLC-MS/MS analysis; type: ADME, organism-based; settings: in vivo
[21] = Drug metabolism in rat hepatocytes assessed as GSH-mediated sulfonamide cleavage by measuring 2-amino-5-[[2-(carboxymethylamino)-1-[[2-cyano-4-(trifluoromethyl)phenyl]sulfanylmethyl]-2-oxo-ethyl]amino]-5-oxo-pentanoic acid formation by LC-MS/MS analysis; type: ADME, cell-based, Hepatocyte
Cytochrome P450 3A4 = Cytochrome P450 3A4 (Homo sapiens, UniProt P08684); experiment: Inhibition of CYP3A4 (unknown origin); type: ADME
[22] = Volume of distribution at steady state in dog; type: ADME, Canis lupus familiaris; settings: in vivo, read-out: Vdss
[23] = Oral bioavailability in Sprague-Dawley rat at 100 mg/kg by HPLC-MS/MS analysis; type: ADME, organism-based; settings: in vivo
[24] = Oral bioavailability in dog; type: ADME, organism-based, Canis lupus familiaris; settings: in vivo
[25] = Unbound clearance in dog; type: ADME, Canis lupus familiaris; settings: in vivo
[26] = Apparent permeability in dog MDCK cells; type: ADME, cell-based, Canis lupus familiaris
[27] = Clearance in dog; type: ADME, Canis lupus familiaris; settings: in vivo
[28] = Protein binding in dog plasma assessed as unbound fraction; type: ADME, cell-free, Canis lupus familiaris
[29] = Mean residence time in dog; type: ADME, Canis lupus familiaris; settings: in vivo
[30] = Dose normalized AUC in Sprague-Dawley rat at 2 mg/kg, po by HPLC-MS/MS analysis; type: ADME, organism-based; settings: in vivo
[31] = biological target: Voltage-gated inwardly rectifying potassium channel KCNH2 (Homo sapiens, UniProt Q12809); experiment: Inhibition of human ERG by electrophysiology
[32] = Dose normalized AUC in Sprague-Dawley rat at 100 mg/kg, po by HPLC-MS/MS analysis; type: ADME, organism-based; settings: in vivo
[33] = Unbound volume of distribution at steady state in dog; type: ADME, Canis lupus familiaris; settings: in vivo
[34] = biological target: T1, Transient receptor potential cation channel subfamily V member 4; experiment: Antagonist activity at human TRPV4
[35] = Oral bioavailability in Sprague-Dawley rat at 1 mg/kg by HPLC-MS/MS analysis; type: ADME, organism-based; settings: in vivo

T1 sequence (Q9HBA0 whole entry): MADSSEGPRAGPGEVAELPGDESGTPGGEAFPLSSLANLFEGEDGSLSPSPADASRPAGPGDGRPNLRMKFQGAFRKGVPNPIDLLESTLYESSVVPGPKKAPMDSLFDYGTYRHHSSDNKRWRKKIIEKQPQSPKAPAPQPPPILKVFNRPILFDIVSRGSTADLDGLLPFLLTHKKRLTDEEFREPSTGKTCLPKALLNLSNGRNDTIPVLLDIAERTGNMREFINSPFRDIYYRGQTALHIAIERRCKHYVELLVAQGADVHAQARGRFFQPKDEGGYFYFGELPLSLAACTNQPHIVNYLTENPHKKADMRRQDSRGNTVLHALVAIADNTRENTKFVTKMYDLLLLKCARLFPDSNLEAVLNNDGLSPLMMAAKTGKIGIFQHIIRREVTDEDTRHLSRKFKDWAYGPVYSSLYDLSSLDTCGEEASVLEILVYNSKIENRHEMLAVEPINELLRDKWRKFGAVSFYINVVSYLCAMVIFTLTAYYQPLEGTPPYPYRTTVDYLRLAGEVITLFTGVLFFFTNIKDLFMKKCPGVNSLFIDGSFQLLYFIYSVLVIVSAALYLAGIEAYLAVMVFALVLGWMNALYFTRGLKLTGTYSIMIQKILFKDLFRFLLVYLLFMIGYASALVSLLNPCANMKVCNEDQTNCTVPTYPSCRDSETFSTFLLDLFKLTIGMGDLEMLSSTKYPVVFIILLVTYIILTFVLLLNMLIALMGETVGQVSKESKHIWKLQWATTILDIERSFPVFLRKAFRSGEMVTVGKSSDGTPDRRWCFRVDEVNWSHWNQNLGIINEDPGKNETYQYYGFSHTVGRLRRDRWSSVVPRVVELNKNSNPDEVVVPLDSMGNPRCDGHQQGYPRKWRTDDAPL
Cytochrome P450 3A4, sequence (P08684 whole entry): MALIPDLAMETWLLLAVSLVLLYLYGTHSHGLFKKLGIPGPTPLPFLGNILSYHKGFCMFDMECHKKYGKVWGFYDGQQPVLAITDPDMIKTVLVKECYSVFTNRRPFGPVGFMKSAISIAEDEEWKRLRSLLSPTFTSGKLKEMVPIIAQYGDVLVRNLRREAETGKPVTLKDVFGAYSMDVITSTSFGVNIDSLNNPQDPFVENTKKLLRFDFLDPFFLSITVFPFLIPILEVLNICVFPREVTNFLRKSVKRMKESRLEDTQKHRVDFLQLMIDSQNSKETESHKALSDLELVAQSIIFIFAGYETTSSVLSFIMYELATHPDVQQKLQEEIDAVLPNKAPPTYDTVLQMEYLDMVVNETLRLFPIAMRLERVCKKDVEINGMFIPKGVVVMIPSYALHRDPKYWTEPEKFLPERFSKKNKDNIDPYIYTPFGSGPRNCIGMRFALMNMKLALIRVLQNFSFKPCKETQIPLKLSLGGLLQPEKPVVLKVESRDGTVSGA
Voltage-gated inwardly rectifying potassium channel KCNH2, sequence (Q12809 whole entry): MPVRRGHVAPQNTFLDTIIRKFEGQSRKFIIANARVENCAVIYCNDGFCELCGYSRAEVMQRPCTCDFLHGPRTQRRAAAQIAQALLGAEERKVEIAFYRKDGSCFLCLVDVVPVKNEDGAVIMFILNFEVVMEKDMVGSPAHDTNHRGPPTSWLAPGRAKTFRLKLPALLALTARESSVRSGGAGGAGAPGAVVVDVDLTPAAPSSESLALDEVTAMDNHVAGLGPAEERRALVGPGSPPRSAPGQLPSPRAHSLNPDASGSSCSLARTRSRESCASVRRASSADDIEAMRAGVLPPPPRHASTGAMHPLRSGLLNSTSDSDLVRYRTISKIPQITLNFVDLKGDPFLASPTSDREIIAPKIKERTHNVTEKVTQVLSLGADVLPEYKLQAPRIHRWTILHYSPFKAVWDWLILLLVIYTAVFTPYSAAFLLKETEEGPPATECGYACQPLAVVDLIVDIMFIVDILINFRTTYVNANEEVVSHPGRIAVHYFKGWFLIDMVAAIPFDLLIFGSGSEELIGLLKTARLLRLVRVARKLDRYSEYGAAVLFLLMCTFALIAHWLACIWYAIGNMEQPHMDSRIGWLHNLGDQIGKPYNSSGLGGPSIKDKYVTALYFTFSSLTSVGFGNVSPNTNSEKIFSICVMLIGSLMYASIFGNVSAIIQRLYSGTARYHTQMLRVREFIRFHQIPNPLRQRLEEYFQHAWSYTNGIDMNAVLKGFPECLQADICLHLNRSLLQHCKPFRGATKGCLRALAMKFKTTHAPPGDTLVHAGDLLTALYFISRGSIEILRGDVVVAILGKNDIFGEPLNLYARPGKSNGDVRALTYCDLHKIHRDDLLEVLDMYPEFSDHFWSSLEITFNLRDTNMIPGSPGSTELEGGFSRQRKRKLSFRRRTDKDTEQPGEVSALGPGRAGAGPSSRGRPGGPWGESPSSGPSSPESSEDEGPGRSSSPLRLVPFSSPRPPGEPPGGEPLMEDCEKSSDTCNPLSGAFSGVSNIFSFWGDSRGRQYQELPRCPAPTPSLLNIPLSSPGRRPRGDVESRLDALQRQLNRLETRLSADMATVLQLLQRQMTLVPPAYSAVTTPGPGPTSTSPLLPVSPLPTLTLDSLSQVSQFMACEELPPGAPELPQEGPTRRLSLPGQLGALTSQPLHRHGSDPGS

| SMILES | IC50 [1] [nM] | bioavailability [2] [%] | fraction unbound [3] | chromatographic logD [4] | solubility at 4 h [5] [µg/mL] | Vduss [6] [L/kg] | CL free [7] [mL/min/kg] | clearance [8] [mL/min/kg] | MRT [9] [h] | Vd [10] [L/kg] | further results |
| --- | --- | --- | --- | --- | --- | --- | --- | --- | --- | --- | --- |
| N#Cc1ccc(O[C@H]2CN(S(=O)(=O)c3ccc(C(F)(F)F)nc3)C[C@@]2(O)CO)cc1F | 175 | 100 | 0.147 | 4.2 | 98 (≈ 212 µM) | 28 | 210 | 31 | 2.3 | 4.1 | Ratio [11]: 13 |
| N#Cc1ccc(O[C@H]2CN(S(=O)(=O)c3ccc(Cl)cc3Cl)C[C@@]2(O)CO)cc1F | – | – | – | – | 19 (≈ 41.2 µM) | 54 | – | – | – | 3.2 | fAUC [12]: 240 ng·h/mL; Ratio [13]: 15 |
| N#Cc1ccc(O[C@H]2CN(S(=O)(=O)c3ccc(C(F)(F)F)cc3C#N)C[C@@]2(O)CO)cc1F | – | – | – | – | 25 (≈ 51.5 µM) | 73 | – | – | – | 3.6 | Drug metabolism [14]: Metabolite_Detected; Ratio AUC (Rattus norvegicus): 18; AUC/dose [15]: 0.038 kg·h/L; AUC/dose [16]: 0.148 kg·h/L; F [17]: 1%; bioavailability [18]: 18%; Drug metabolism [19]: Metabolite_Detected; Ratio [11]: 22; AUC/dose [20]: 0.0021 kg·h/L; Ratio [13]: 30; Drug metabolism [21]: Metabolite_Detected |
| N#Cc1ccc(O[C@H]2CN(S(=O)(=O)c3ccc(Cl)cn3)C[C@]2(O)CO)cc1F | 190 | – | – | 3.5 | 130 (≈ 304 µM) | – | 150 | – | 3.3 | – | – |
| CC(C)Nc1nc2c(C(=O)N(C)C)c(Cl)c(Cl)cc2n1C1CCN(c2ccc(C(C)(C)C#N)cc2)CC1 | – | – | – | – | – | – | – | – | – | – | IC50 [34]: 32 nM |
| N#Cc1ccc(S(=O)(=O)[C@H]2CN(S(=O)(=O)c3ccc(Cl)cn3)C[C@@]2(O)CO)cc1 | 3800 | – | – | 3.1 | > 1000 | – | – | – | – | – | – |

Second part, led by results:

| IC50 [1] [nM] | bioavailability [2] [%] | fraction unbound [3] | chromatographic logD [4] | solubility at 4 h [5] [µg/mL] | Vduss [6] [L/kg] | CL free [7] [mL/min/kg] | clearance [8] [mL/min/kg] | MRT [9] [h] | Vd [10] [L/kg] | SMILES | further results |
| --- | --- | --- | --- | --- | --- | --- | --- | --- | --- | --- | --- |
| 8 | 100 | 0.027 | 4.5 | 270 (≈ 549 µM) | 85 | 925 | – | – | – | N#Cc1ccc(S(=O)(=O)[C@H]2CN(S(=O)(=O)c3ccc(Cl)cc3Cl)C[C@@]2(O)CO)cc1 | – |
| 33 | 100 | 0.04 | 4.9 | 88 (≈ 191 µM) | 330 | 1350 | 54 | 4.8 | 13 | N#Cc1ccc(O[C@H]2CN(S(=O)(=O)c3ccc(Cl)cc3Cl)CC2(O)CO)cc1F (single isomer, unassigned) | – |
| 100 | 100 | 0.033 | 4.5 | 5 (≈ 10.9 µM) | 180 | 1500 | 50 | 2 | 5.9 | N#Cc1ccc(O[C@H]2CN(S(=O)(=O)c3ccc(C(F)(F)F)cc3)C[C@@]2(O)CO)cc1F | – |
| 3.5 | 24 | 0.036 | 4 | 78 (≈ 169 µM) | 210 | 1100 | 40 | 3.2 | 7.7 | N#Cc1ccc(O[C@H]2CN(S(=O)(=O)c3ccc(Cl)cc3Cl)C[C@@]2(O)CN)cc1F (racemic) | IC50 (Cytochrome P450 3A4): 1600 nM; fAUC [12]: 170 ng·h/mL |
| 12 | 26 | 0.14 | 2.5 | > 1000 | 47 | 320 | 45 | 2.5 | 6.7 | N#Cc1ccc(O[C@H]2CN(S(=O)(=O)c3ccc(Cl)cn3)C[C@@]2(O)CN)cc1F | Vd [22]: 5.9 L/kg; bioavailability [23]: 87%; bioavailability [24]: 84%; CL free [25]: 18 mL/min/kg; Papp [26]: 0.08 ×10⁻⁶ cm/s; clearance [27]: 5.9 mL/min/kg; fraction unbound [28]: 0.32; MRT [29]: 17 h; AUC/dose [30]: 0.092 kg·h/L; IC50 (Cytochrome P450 3A4): 12000 nM; IC50 [31]: 20000 nM; AUC/dose [32]: 0.31 kg·h/L; Vduss [33]: 18 L/kg; Ratio [11]: 18 |
| 34 | 100 | 0.18 | 3.4 | 26 (≈ 60.8 µM) | 12 | 170 | 30 | 1.2 | 2.2 | N#Cc1ccc(O[C@H]2CN(S(=O)(=O)c3ccc(Cl)cn3)C[C@@]2(O)CO)cc1F | Vd [22]: 1.9 L/kg; bioavailability [24]: 100%; CL free [25]: 12 mL/min/kg; Papp [26]: 0.22 ×10⁻⁶ cm/s; clearance [27]: 4.1 mL/min/kg; fraction unbound [28]: 0.34; MRT [29]: 7.8 h; AUC/dose [15]: 0.5 kg·h/L; AUC/dose [16]: 0.63 kg·h/L; bioavailability ([17]; Sprague-Dawley): 7%; bioavailability [18]: 79%; Vduss [33]: 5.5 L/kg; Ratio [11]: 14; AUC/dose [20]: 0.043 kg·h/L; bioavailability [35]: 100% |
| 53 | 83 | 0.035 | 4.1 | 44 (≈ 103 µM) | 170 | 1540 | 54 | 1.9 | 6 | N#Cc1ccc(O[C@H]2CN(S(=O)(=O)c3ccc(Cl)cc3)C[C@@]2(O)CO)cc1F | – |
| 3.8 | 32 | 0.197 | 3.4 | 20 (≈ 47.9 µM) | 4.6 | 200 | 39 | 0.4 | 0.9 | N#Cc1ccc(O[C@H]2CN(S(=O)(=O)c3ccccc3C#N)C[C@@]2(O)CO)cc1F | – |
